Test results reported in patent US20260174875A1 (Novo Nordisk A/S, priority 2023, published 2026).

Assay: Chemical stability assessment in formulation (UPLC-UV-MS purity loss at 37° C.)
Assay type: physicochemical
Settings: 8 mM phosphate buffer pH 7.4, 1 mg/mL, 2 weeks
Experimental: The assay was performed to investigate the extend of chemical degradation in vitro over time upon incubation at 37° C. for a period of 2 weeks.
Peptide solutions were prepared by dissolving freeze-dried powder in 8 mM phosphate buffer pH 7.4 to a target of 1 mg/mL. The pH of peptide solutions was adjusted to 7.4 with 0.02 M HCl or 0.02 M NaOH. Samples were filled in Agilent HPLC vials with fixed insert. Vials were capped to prevent evaporation. The HPLC vials were incubated at 37° C. and samples were withdrawn at different time points over a period of 2 weeks, flash frozen at −80° C., and stored at −20° C. until analysis.
A flow-rate of 100 μL/min was delivered with a Binary solvent manager pump having 0.1% formic acid in water as solvent A and 0.1% formic acid in acetonitrile as solvent B. Gradient elution was carried out using 20% B from 0 to 2 min followed by 20 to 50% B from 2 to 20 min in a total run time of 30 min.

Going from CC[C@H](C)[C@H](NC(=O)[C@H](CCC(=O)O)NC(=O)[C@H](CCC(=O)O)NC(=O)[C@H](CC(C)C)NC(=O)[C@H](CC(C)C)NC(=O)[C@@H](NC(=O)[C@H](CO)NC(=O)[C@H](Cc1ccc(O)cc1)NC(=O)[C@H](CC(=O)O)NC(=O)[C@H](CO)NC(=O)[C@@H](NC(=O)[C@H](Cc1ccccc1)NC(=O)[C@@H](NC(=O)CNC(=O)[C@H](CCC(=O)O)NC(=O)C(C)(C)NC(=O)[C@@H](N)Cc1ccc(O)cc1)[C@@H](C)O)[C@@H](C)O)[C@@H](C)CC)C(=O)N[C@@H](C)C(=O)N[C@@H](C)C(=O)N[C@@H](CCCNC(=N)N)C(=O)N[C@@H](CCC(=O)O)C(=O)N[C@@H](Cc1ccccc1)C(=O)N[C@H](C(=O)N[C@@H](CCC(=O)O)C(=O)N[C@@H](Cc1c[nH]c2ccccc12)C(=O)N[C@@H](CC(C)C)C(=O)N[C@@H](CC(C)C)C(=O)N[C@@H](C)C(=O)NCC(=O)NCC(=O)N1CCC[C@H]1C(=O)N[C@@H](CO)C(=O)N[C@@H](CO)C(=O)NCC(=O)N[C@@H](C)C(=O)NCC(=O)N[C@@H](CCC(N)=O)C(=O)N[C@@H](C)C(=O)N1CCC[C@H]1C(=O)NCC(=O)N[C@@H](CCC(N)=O)C(=O)N[C@@H](C)C(=O)N1CCC[C@H]1C(=O)NCC(=O)N[C@@H](C)C(=O)N[C@@H](CO)C(=O)N[C@@H](Cc1c[nH]cn1)C(=O)N[C@@H](CC(C)C)C(=O)N[C@@H](CO)C(=O)N[C@H](C(=O)N[C@@H](C)C(=O)N[C@@H](CCC(N)=O)C(=O)N[C@H](C(=O)N[C@@H](CCC(N)=O)C(=O)N[C@@H](CCCNC(=N)N)C(=O)N[C@@H](CC(C)C)C(=O)N[C@@H](CO)C(=O)N[C@@H](C)C(=O)N[C@@H](CCC(=O)O)C(=O)N[C@@H](CC(C)C)C(=O)N[C@@H](Cc1c[nH]cn1)C(=O)N[C@@H](CCCCNC(=O)COCCOCCNC(=O)COCCOCCNC(=O)CC[C@H](NC(=O)CCCCCCCCCCCCCCCCCCC(=O)O)C(=O)O)C(=O)N[C@@H](CC(C)C)C(=O)N[C@@H](C)C(=O)N[C@H](C(=O)N[C@@H](CCC(=O)O)C(=O)N1CCC[C@H]1C(=O)N[C@@H](CCCNC(=N)N)C(=O)N[C@H](C(=O)N[C@@H](CCC(=O)O)C(=O)N[C@H](C(=O)NCC(=O)N[C@@H](CO)C(=O)NCC(=O)N[C@@H](CO)C(=O)N1CCC[C@H]1C(N)=O)[C@@H](C)O)[C@@H](C)O)[C@@H](C)O)[C@@H](C)O)[C@@H](C)O)[C@@H](C)CC [Compound 162] to CC[C@H](C)[C@H](NC(=O)[C@H](CCC(=O)O)NC(=O)[C@H](CCC(=O)O)NC(=O)[C@H](CC(C)C)NC(=O)[C@H](CC(C)C)NC(=O)[C@H](CCCCNC(=O)COCCOCCNC(=O)COCCOCCNC(=O)CC[C@H](NC(=O)CCCCCCCCCCCCCCCCCCC(=O)O)C(=O)O)NC(=O)[C@H](CO)NC(=O)[C@H](Cc1ccc(O)cc1)NC(=O)[C@H](CC(=O)O)NC(=O)[C@H](CO)NC(=O)[C@@H](NC(=O)[C@H](Cc1ccccc1)NC(=O)[C@@H](NC(=O)CNC(=O)[C@H](CCC(=O)O)NC(=O)C(C)(C)NC(=O)[C@@H](N)Cc1ccc(O)cc1)[C@@H](C)O)[C@@H](C)O)C(=O)N[C@@H](C)C(=O)N[C@@H](C)C(=O)N[C@@H](CCCNC(=N)N)C(=O)N[C@@H](CCC(=O)O)C(=O)N[C@@H](Cc1ccccc1)C(=O)N[C@H](C(=O)N[C@@H](CCC(=O)O)C(=O)N[C@@H](Cc1c[nH]c2ccccc12)C(=O)N[C@@H](CC(C)C)C(=O)N[C@@H](CC(C)C)C(=O)N[C@@H](C)C(=O)NCC(=O)NCC(=O)N1CCC[C@H]1C(=O)N[C@@H](CO)C(=O)N[C@@H](CO)C(=O)NCC(=O)N[C@@H](C)C(=O)NCC(=O)N[C@@H](CCC(N)=O)C(=O)N[C@@H](C)C(=O)N1CCC[C@H]1C(=O)NCC(=O)N[C@@H](CCC(=O)O)C(=O)N[C@@H](C)C(=O)N1CCC[C@H]1C(=O)NCC(=O)N[C@@H](C)C(=O)N[C@@H](CO)C(=O)N[C@@H](CCC(=O)O)C(=O)N[C@@H](CC(C)C)C(=O)N[C@@H](CO)C(=O)N[C@H](C(=O)N[C@@H](C)C(=O)N[C@@H](C)C(=O)N[C@@H](CC(C)C)C(=O)NCC(=O)N[C@@H](CCCNC(=N)N)C(=O)N[C@@H](CC(C)C)C(=O)N[C@@H](CO)C(=O)N[C@@H](C)C(=O)N[C@@H](CCC(=O)O)C(=O)N[C@@H](CC(C)C)C(=O)N[C@@H](Cc1c[nH]cn1)C(=O)N[C@@H](CCC(N)=O)C(=O)N[C@@H](CC(C)C)C(=O)N[C@@H](C)C(=O)N[C@H](C(=O)N[C@@H](CCC(=O)O)C(=O)N1CCC[C@H]1C(=O)N[C@@H](CCCNC(=N)N)C(=O)N[C@H](C(=O)N[C@@H](CCC(=O)O)C(=O)N[C@H](C(=O)NCC(=O)N[C@@H](CO)C(=O)NCC(=O)N[C@@H](CO)C(=O)N1CCC[C@H]1C(N)=O)[C@@H](C)O)[C@@H](C)O)[C@@H](C)O)[C@@H](C)O)[C@@H](C)CC [Compound 172], the “Purity loss per week at 37° C.” value falls from 1.0% to 0.9%.

Compared with CC[C@H](C)[C@H](NC(=O)[C@H](CCC(=O)O)NC(=O)[C@H](CCC(=O)O)NC(=O)[C@H](CC(C)C)NC(=O)[C@H](CC(C)C)NC(=O)[C@H](CCCCNC(=O)COCCOCCNC(=O)COCCOCCNC(=O)CC[C@H](NC(=O)CCCCCCCCCCCCCCCCCCC(=O)O)C(=O)O)NC(=O)[C@H](CO)NC(=O)[C@H](Cc1ccc(O)cc1)NC(=O)[C@H](CC(=O)O)NC(=O)[C@H](CO)NC(=O)[C@@H](NC(=O)[C@H](Cc1ccccc1)NC(=O)[C@@H](NC(=O)CNC(=O)[C@H](CCC(=O)O)NC(=O)C(C)(C)NC(=O)[C@@H](N)Cc1ccc(O)cc1)[C@@H](C)O)[C@@H](C)O)C(=O)N[C@@H](C)C(=O)N[C@@H](C)C(=O)N[C@@H](CCCNC(=N)N)C(=O)N[C@@H](CCC(=O)O)C(=O)N[C@@H](Cc1ccccc1)C(=O)N[C@H](C(=O)N[C@@H](CCC(=O)O)C(=O)N[C@@H](Cc1c[nH]c2ccccc12)C(=O)N[C@@H](CC(C)C)C(=O)N[C@@H](CC(C)C)C(=O)N[C@@H](C)C(=O)NCC(=O)NCC(=O)N1CCC[C@H]1C(=O)N[C@@H](CO)C(=O)N[C@@H](CO)C(=O)NCC(=O)N[C@@H](C)C(=O)NCC(=O)N[C@@H](CCC(N)=O)C(=O)N[C@@H](C)C(=O)N1CCC[C@H]1C(=O)NCC(=O)N[C@@H](CCC(=O)O)C(=O)N[C@@H](C)C(=O)N1CCC[C@H]1C(=O)NCC(=O)N[C@@H](C)C(=O)N[C@@H](CO)C(=O)N[C@@H](CCC(=O)O)C(=O)N[C@@H](CC(C)C)C(=O)N[C@@H](CO)C(=O)N[C@H](C(=O)N[C@@H](C)C(=O)N[C@@H](C)C(=O)N[C@@H](CC(C)C)C(=O)NCC(=O)N[C@@H](CCCNC(=N)N)C(=O)N[C@@H](CC(C)C)C(=O)N[C@@H](CO)C(=O)N[C@@H](C)C(=O)N[C@@H](CCC(=O)O)C(=O)N[C@@H](CC(C)C)C(=O)N[C@@H](Cc1c[nH]cn1)C(=O)N[C@@H](CCC(N)=O)C(=O)N[C@@H](CC(C)C)C(=O)N[C@@H](C)C(=O)N[C@H](C(=O)N[C@@H](CC(C)C)C(=O)N1CCC[C@H]1C(=O)N[C@@H](CCCNC(=N)N)C(=O)N[C@H](C(=O)N[C@@H](CCC(=O)O)C(=O)N[C@H](C(=O)NCC(=O)N[C@@H](CO)C(=O)NCC(=O)N[C@@H](CO)C(=O)N1CCC[C@H]1C(N)=O)[C@@H](C)O)[C@@H](C)O)[C@@H](C)O)[C@@H](C)O)[C@@H](C)CC [Compound 171], CC[C@H](C)[C@H](NC(=O)[C@H](CCC(=O)O)NC(=O)[C@H](CCC(=O)O)NC(=O)[C@H](CC(C)C)NC(=O)[C@H](CC(C)C)NC(=O)[C@@H](NC(=O)[C@H](CO)NC(=O)[C@H](Cc1ccc(O)cc1)NC(=O)[C@H](CC(=O)O)NC(=O)[C@H](CO)NC(=O)[C@@H](NC(=O)[C@H](Cc1ccccc1)NC(=O)[C@@H](NC(=O)CNC(=O)[C@H](CCC(=O)O)NC(=O)C(C)(C)NC(=O)[C@@H](N)Cc1ccc(O)cc1)[C@@H](C)O)[C@@H](C)O)[C@@H](C)CC)C(=O)N[C@@H](C)C(=O)N[C@@H](C)C(=O)N[C@@H](CCCNC(=N)N)C(=O)N[C@@H](CCC(=O)O)C(=O)N[C@@H](Cc1ccccc1)C(=O)N[C@H](C(=O)N[C@@H](CCC(=O)O)C(=O)N[C@@H](Cc1c[nH]c2ccccc12)C(=O)N[C@@H](CC(C)C)C(=O)N[C@@H](CC(C)C)C(=O)N[C@@H](C)C(=O)NCC(=O)NCC(=O)N1CCC[C@H]1C(=O)N[C@@H](CO)C(=O)N[C@@H](CO)C(=O)NCC(=O)N[C@@H](C)C(=O)NCC(=O)N[C@@H](C)C(=O)N[C@@H](CO)C(=O)N[C@@H](CCC(N)=O)C(=O)N[C@@H](CC(C)C)C(=O)N[C@@H](CO)C(=O)N[C@H](C(=O)N[C@@H](C)C(=O)N[C@@H](CCC(N)=O)C(=O)N[C@H](C(=O)N[C@@H](CCC(N)=O)C(=O)N[C@@H](CCCNC(=N)N)C(=O)N[C@@H](CC(C)C)C(=O)N[C@@H](CO)C(=O)N[C@@H](C)C(=O)N[C@@H](CCC(=O)O)C(=O)N[C@@H](CC(C)C)C(=O)N[C@@H](Cc1c[nH]cn1)C(=O)N[C@@H](CCCCNC(=O)COCCOCCNC(=O)COCCOCCNC(=O)CC[C@H](NC(=O)CCCCCCCCCCCCCCCCCCC(=O)O)C(=O)O)C(=O)N[C@@H](CC(C)C)C(=O)N[C@@H](C)C(=O)N[C@H](C(=O)N[C@@H](CCC(=O)O)C(=O)N1CCC[C@H]1C(=O)N[C@@H](CCCNC(=N)N)C(=O)N[C@H](C(=O)N[C@@H](CCC(=O)O)C(=O)N[C@H](C(=O)NCC(=O)N[C@@H](CO)C(=O)NCC(=O)N[C@@H](CO)C(=O)N1CCC[C@H]1C(N)=O)[C@@H](C)O)[C@@H](C)O)[C@@H](C)O)[C@@H](C)O)[C@@H](C)O)[C@@H](C)CC [Compound 180] is lower in “Purity loss per week at 37° C.” value: 1.0% for the first, 0.7% for the second.
